Source: PMC12441791, “Structural modifications of toxyloxanthone C and macluraxanthone isolated from Maclura cochinchinensis: cytotoxicity, antibacterial activity, and in silico studies” (RSC Advances, 2025)
≈ marks a conversion by molar mass, not a printed value. Read-outs that look alike come from different tables or passages of the source.

Tests used:
[1] = tested on: HelaS3 (human cervical carcinoma) cells; parameters: method as in PMID 35422182; conditions: parent xanthones, previous report, read-out: Cytotoxicity (IC50, μM) HelaS3; cited from earlier work
[2] = tested on: A549 (human lung carcinoma) cells; parameters: method as in PMID 35422182; conditions: parent xanthones, previous report, read-out: Cytotoxicity (IC50, μM) A549; cited from earlier work
[3] = tested on: Bacillus cereus ATCC 11778; parameters: method as in PMID 35422182; conditions: parent xanthones, previous report; cited from earlier work
[4] = tested on: Methicillin resistant Staphylococcus aureus (MRSA); parameters: method as in PMID 35422182; conditions: parent xanthones, previous report; cited from earlier work
[5] = tested on: Vero (African green monkey kidney) cells; parameters: method as in PMID 35422182; conditions: parent xanthones, previous report, read-out: Cytotoxicity (IC50, μM) Vero; cited from earlier work
[6] = tested on: HepG2 (human hepatocellular carcinoma) cells; parameters: method as in PMID 35422182; conditions: parent xanthones, previous report, read-out: Cytotoxicity (IC50, μM) HepG2; cited from earlier work
[7] = tested on: S. aureus ATCC 25923; parameters: method as in PMID 35422182; conditions: parent xanthones, previous report; cited from earlier work
[8] = tested on: Bacillus subtilis ATCC 6633; parameters: method as in PMID 35422182; conditions: parent xanthones, previous report; cited from earlier work
[9] = tested on: A549 (human lung carcinoma) cells; assay: In vitro cytotoxicity, A549; assay type: cell-based
Experimental: (§1) All types of cancer and non-tumorigenic cells were purchased from ATCC. Cytotoxicity assays against human cervical carcinoma (HelaS3; ATCC CCL2-2), human hepatocellular carcinoma (HepG2; ATCC HB-8065), human lung carcinoma (A549; ATCC CCL-185), and African green monkey kidney (Vero; ATCC CCL-81) cell lines were performed by […].[44] Cells proliferation was performed using the MTT colorimetric assay,[44] as in our previous publication.[4]

[10] = tested on: MRSA, S. aureus, B. subtilis, and B. cereus; assay: Antibacterial activity stated over all four Gram-positive strains; assay type: cell-based; conditions: for MIC / MIC against all bacterial strains tested: MRSA, S. aureus, B. subtilis, B. cereus taken together; for MIC: read-out: MIC against all bacterial strains tested; for fold improvement in antibacterial potency (MIC) compared to parent 1: all bacterial strains
Experimental: (§2) Four bacterial cultures Bacillus cereus ATCC 11778, Bacillus subtilis ATCC 6633, Staphylococcus aureus ATCC 25923, and Methicillin resistant Staphylococcus aureus (MRSA) were employed as the test organisms. Minimum inhibitory concentration (MIC) values were determined using the dilution method, as described in the M07-A9,[45] as described in our previous paper.[4,46]

[11] = tested on: HelaS3, A549, and HepG2 cancer cell lines; assay: Cytotoxicity stated over the three cancer cell lines; assay type: cell-based, human; conditions: HelaS3, A549, HepG2 taken together
Experimental: as §1

[12] = tested on: Bacillus subtilis ATCC 6633; assay: Antibacterial microdilution MIC, B. subtilis; assay type: cell-based; conditions: ATCC6633, microdilution method, ATCC 6633, read-out: MIC B. subtilis
Experimental: as §2

[13] = tested on: Bacillus cereus ATCC 11778; assay: Antibacterial microdilution MIC, B. cereus; assay type: cell-based; conditions: ATCC11778, microdilution method, ATCC 11778, read-out: MIC B. cereus
Experimental: as §2

[14] = tested on: Vero (African green monkey kidney) cells; assay: In vitro cytotoxicity, Vero normal cells; assay type: cell-based
Experimental: as §1

[15] = In vitro cytotoxicity, Vero normal cells; assay type: cell-based, African green monkey; conditions: African green monkey, Vero cells (kidney, non-tumorigenic)
Experimental: as §1

[16] = tested on: HelaS3 (human cervical carcinoma) cells; assay: In vitro cytotoxicity, HelaS3; assay type: cell-based; conditions: HeLa S3
Experimental: as §1

[17] = tested on: S. aureus ATCC 25923; assay: Antibacterial microdilution MIC, S. aureus; assay type: cell-based; conditions: Staphylococcus aureus, ATCC25923; microdilution method; ATCC 25923; read-out: MIC S. aureus
Experimental: as §2

[18] = tested on: HepG2 (human hepatocellular carcinoma) cells; assay: In vitro cytotoxicity, HepG2; assay type: cell-based
Experimental: as §1

[19] = tested on: Methicillin resistant Staphylococcus aureus (MRSA); assay: Antibacterial microdilution MIC, MRSA; assay type: cell-based; conditions: microdilution method, read-out: MIC MRSA
Experimental: as §2

Compound: CC1Oc2cc3oc4c(O)c(O)ccc4c(=O)c3c(O)c2C1(C)C (centres unmarked) [Compound 1, Toxyloxanthone C]
- IC50 [1]: 13.6 ± 1.11 µM
- IC50 [2]: 21.8 ± 4.89 µM
- MIC B. cereus [3]: 128 µg/mL (≈ 390 µM)
- MIC MRSA [4]: 128 µg/mL (≈ 390 µM)
- IC50 [5]: 8.52 ± 0.64 µM
- IC50 [6]: 20.8 ± 2.57 µM
- MIC S. aureus [7]: 128 µg/mL (≈ 390 µM)
- MIC B. subtilis [8]: 128 µg/mL (≈ 390 µM)

Compound: CC(=O)Oc1ccc2c(=O)c3c(O)c4c(cc3oc2c1OC(C)=O)OC(C)C4(C)C (centres unmarked) [Compound 1a, 5,6-Diacetoxytoxyloxanthone C]
- IC50 [9]: 12.2 ± 1.08 µM
- MIC [10]: 4 µg/mL (≈ 9.7 µM)
- fold improvement in antibacterial potency (MIC) compared to parent 1 [10]: 32 fold
- IC50 ([11]; Homo sapiens, read-out: Cytotoxicity against three cancer cell lines (IC50 values, range over lines)): 12.2 to 22.6 µM
- MIC [12]: 4 µg/mL (≈ 9.7 µM)
- MIC [13]: 4 µg/mL (≈ 9.7 µM)
- Cytotoxicity (IC50, μM) Vero [14]: without showing cytotoxicity
- IC50 [15]: > 100 µM
- IC50 [16]: 22.6 ± 2.02 µM
- MIC [17]: 4 µg/mL (≈ 9.7 µM)
- IC50 [18]: 21.1 ± 1.18 µM
- MIC [19]: 4 µg/mL (≈ 9.7 µM)

Compound: CCCCC(=O)Oc1ccc2c(=O)c3c(OC(=O)CCCC)c4c(cc3oc2c1OC(=O)CCCC)OC(C)C4(C)C (centres unmarked) [Compound 1b, 1,5,6-Tripentanoyloxytoxyloxanthone C]
- IC50 [9]: 5.77 ± 2.14 µM
- MIC [10]: 8 to 16 µg/mL (≈ 13.8 to 27.6 µM)
- MIC [12]: 8 µg/mL (≈ 13.8 µM)
- MIC [13]: 16 µg/mL (≈ 27.6 µM)
- Cytotoxicity (IC50, μM) Vero [14]: strong cytotoxicity
- IC50 [15]: 5.59 ± 0.36 µM
- IC50 [16]: 20.5 ± 4.92 µM
- MIC [17]: 8 µg/mL (≈ 13.8 µM)
- IC50 [18]: 17.2 ± 4.5 µM
- MIC [19]: 8 µg/mL (≈ 13.8 µM)

Compound: CC1Oc2cc3oc4c(OS(C)(=O)=O)c(OS(C)(=O)=O)ccc4c(=O)c3c(O)c2C1(C)C (centres unmarked) [Compound 1c, 5,6-Dimesyloxytoxyloxanthone C]
- IC50 [9]: > 100 µM
- MIC against all bacterial strains tested [10]: no antibacterial activity
- MIC [12]: > 128 µg/mL
- MIC [13]: > 128 µg/mL
- IC50 [15]: > 100 µM
- IC50 [16]: 65.3 ± 3.92 µM
- MIC [17]: > 128 µg/mL
- IC50 [18]: > 100 µM
- MIC [19]: > 128 µg/mL

Compound: COc1ccc2c(=O)c3c(O)c4c(cc3oc2c1OC)OC(C)C4(C)C (centres unmarked) [Compound 1d, 5,6-Dimethoxytoxyloxanthone C]
- IC50 [9]: > 100 µM
- MIC against all bacterial strains tested [10]: no antibacterial activity
- Cytotoxicity against three cancer cell lines (IC50 values, range over lines) [11]: no cytotoxicity
- MIC [12]: > 128 µg/mL
- MIC [13]: > 128 µg/mL
- IC50 [15]: > 100 µM
- IC50 [16]: > 100 µM
- MIC [17]: > 128 µg/mL
- IC50 [18]: > 100 µM
- MIC [19]: > 128 µg/mL

Compound: CCOc1ccc2c(=O)c3c(O)c4c(cc3oc2c1OCC)OC(C)C4(C)C (centres unmarked) [Compound 1e, 5,6-Diethoxytoxyloxanthone C]
- IC50 [9]: > 100 µM
- MIC against all bacterial strains tested [10]: no antibacterial activity
- MIC [12]: > 128 µg/mL
- MIC [13]: > 128 µg/mL
- IC50 [15]: > 100 µM
- IC50 [16]: 50.4 ± 8.45 µM
- MIC [17]: > 128 µg/mL
- IC50 [18]: > 100 µM
- MIC [19]: > 128 µg/mL

Compound: CC1Oc2c(c(O)c3c(=O)c4ccc(O)c(O)c4oc3c2Br)C1(C)C (centres unmarked) [Compound 1f, 4-Bromotoxyloxanthone C]
- IC50 [9]: 7.52 ± 0.36 µM
- MIC [10]: 4 µg/mL (≈ 9.82 µM)
- fold improvement in antibacterial potency (MIC) compared to parent 1 [10]: 32 fold
- MIC [12]: 4 µg/mL (≈ 9.82 µM)
- MIC [13]: 4 µg/mL (≈ 9.82 µM)
- Cytotoxicity (IC50, μM) Vero [14]: cytotoxic toward normal cells
- IC50 [15]: 9.52 ± 1.02 µM
- IC50 [16]: 17.4 ± 1.75 µM
- MIC [17]: 4 µg/mL (≈ 9.82 µM)
- IC50 [18]: 19.4 ± 1.52 µM
- MIC [19]: 4 µg/mL (≈ 9.82 µM)

Compound: C=CC(C)(C)c1c2c(c(O)c3c(=O)c4ccc(O)c(O)c4oc13)C=CC(C)(C)O2 [Compound 2, Macluraxanthone]
- IC50 [1]: 1.59 ± 0.12 µM
- IC50 [2]: 6.46 ± 0.98 µM
- MIC B. cereus [3]: 64 µg/mL (≈ 162 µM)
- MIC MRSA [4]: 16 µg/mL (≈ 40.6 µM)
- IC50 [5]: 4.29 ± 0.6 µM
- IC50 [6]: 5.26 ± 0.41 µM
- MIC S. aureus [7]: >128 µg/mL
- MIC B. subtilis [8]: 64 µg/mL (≈ 162 µM)
